These results are taken from patent US12077503B2, “Substituted cyclic amides and their use as herbicides” (FMC CORPORATION, priority 2015, dated 2024).

Common to all, as to format: in vivo
Experiment [1] has as its system giant foxtail (Setaria faberii). In words: Test A preemergence. The conditions noted are these: Setaria faberi, pre-emergence, 240 h; for pest or weed control at 125 g/ha: 125 g ai/ha, 0 to 100 scale where 0 is no effect and 100 is complete control; for pest or weed control at 500 g/ha: 500 g ai/ha. The gist of the method:
(§1)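 In a loam soil and sand blend, planted seeds got a preemergence directed soil spray, and young plants at the one- to two-leaf stage, 2–10 cm high, got a postemergence application; ~10 d greenhouse hold; injury rated visually, 0 = none, 100 = complete control.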

Experiment [2] relates to Galium (catchweed bedstraw, Galium aparine). In words: Test A postemergence. To be noted: Galium, post-emergence, 240 h, postemergence; for pest or weed control at 125 g/ha: 125 g ai/ha. The gist of the method:
as §1

The subject of experiment [3] is Kochia (Kochia scoparia). The experiment is described as follows: Test A postemergence. The conditions noted are these: Bassia scoparia, post-emergence, 240 h, postemergence; for pest or weed control at 125 g/ha: 125 g ai/ha. The gist of the method: as §1
Experiment [4] concerns barnyardgrass (Echinochloa crus-galli). The experiment is described as follows: Test A postemergence. The conditions noted are these: Echinochloa crus-galli, post-emergence, 240 h; for pest or weed control at 125 g/ha: 125 g ai/ha, postemergence. In a few lines:
as §1

The subject of experiment [5] is blackgrass (Alopecurus myosuroides). The experiment is described as follows: Test A postemergence. The conditions noted are these: Alopecurus myosuroides, post-emergence, 240 h; for pest or weed control at 125 g/ha: 125 g ai/ha, postemergence. In a few lines: as §1
Experiment [6] relates to corn (Zea mays). The experiment is described as follows: Test A postemergence. The conditions noted are these: Zea mays, post-emergence, 240 h. The gist of the method:
as §1

For experiment [7], the system named is giant foxtail (Setaria faberii). In words: Test A postemergence. The conditions noted are these: Setaria faberi, post-emergence, 240 h, postemergence; for pest or weed control at 125 g/ha: 125 g ai/ha. In a few lines: as §1
For experiment [8], the system named is pigweed (Amaranthus retroflexus). In words: Test A postemergence. The conditions noted are these: Amaranthus retroflexus, post-emergence, 240 h, postemergence; for pest or weed control at 125 g/ha: 125 g ai/ha. In a few lines:
as §1

The subject of experiment [9] is ragweed (common ragweed, Ambrosia elatior). The experiment is described as follows: Test A postemergence. The conditions noted are these: Ambrosia artemisiifolia, post-emergence, 240 h, postemergence; for pest or weed control at 125 g/ha: 125 g ai/ha. In a few lines: as §1
In experiment [10] the test system is ryegrass, Italian (Italian ryegrass, Lolium multiflorum). In words: Test A postemergence. The conditions noted are these: Lolium multiflorum, post-emergence, 240 h, postemergence; for pest or weed control at 125 g/ha: 125 g ai/ha. In a few lines:
as §1

Experiment [11] relates to wheat (Triticum aestivum). The experiment is described as follows: Test A postemergence. The conditions noted are these: Triticum aestivum, post-emergence, 240 h, postemergence; for plant injury at 125 g/ha: 125 g ai/ha. In a few lines:
as §1

In experiment [12] the test system is barnyardgrass (Echinochloa crus-galli). The experiment is described as follows: Test B flooded paddy test. The conditions noted are these: Flood, 250 g ai/ha. In a few lines: (§2)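 Plants at 2-leaf stage flooded to 3 cm above soil, with compounds applied directly to paddy water and that depth maintained. Plants kept in greenhouse 13–15 d. Visual rating versus controls on a 0 (no effect) to 100 (complete control) scale.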

Experiment [13] has as its system ducksalad (Heteranthera limosa). The experiment is described as follows: Test B flooded paddy test. To be noted: Flood, 250 g ai/ha. In a few lines: as §2
The subject of experiment [14] is rice (Oryra sativa). In words: Test B flooded paddy test. The conditions noted are these: Flood, 250 g ai/ha. In a few lines: as §2
Experiment [15] has as its system sedge, umbrella (small-flower umbrella sedge, Cyperus difformis). In words: Test B flooded paddy test. To be noted: Flood, 250 g ai/ha. The gist of the method:
as §2

[16] abbreviates: 0 to 100 scale where 0 is no effect and 100 is complete control, 13 to 15 d.

SMILES strings stand for the structures. Read-outs that look alike come from different tables or passages of the source.

Regarding `CN1C[C@H](c2ccc(F)c(F)c2)[C@@H](C(=O)Nc2cccc(F)c2F)C1=O` [Compound 639, (3S,4S)—N-(2,3-difluorophenyl)-4-(3,4-difluorophenyl)-1-methyl-2-oxo-3-pyrrolidinecarboxamide], the pest or weed control at 125 g/ha in experiment [1] (Preemergence, visual injury after approximately 10 d, read-out: Plant response rating, Foxtail, Giant) was found to be 90%; in experiment [2] (visual rating after approx. 10 d, 0 to 100 scale (0 no effect, 100 complete control), read-out: Plant response rating, Galium), 40%; in [3] (visual rating after approx. 10 d, 0 to 100 scale (0 no effect, 100 complete control), read-out: Plant response rating, Kochia), 60%; in [4] (visual rating after approx. 10 d, 0 to 100 scale (0 no effect, 100 complete control), read-out: Plant response rating, Barnyardgrass), 90%; in [5] (visual rating after approx. 10 d, 0 to 100 scale (0 no effect, 100 complete control), read-out: Plant response rating, Blackgrass), 60%; in experiment [7] (visual rating after approx. 10 d, 0 to 100 scale (0 no effect, 100 complete control), read-out: Plant response rating, Foxtail, Giant), 90%. In addition, the pest or weed control at 125 g/ha in experiment [8] (visual rating after approx. 10 d, 0 to 100 scale (0 no effect, 100 complete control), read-out: Plant response rating, Pigweed) worked out at 20%; in [9] (visual rating after approx. 10 d, 0 to 100 scale (0 no effect, 100 complete control), read-out: Plant response rating, Ragweed), 0%; in experiment [10] (visual rating after approx. 10 d, 0 to 100 scale (0 no effect, 100 complete control), read-out: Plant response rating, Ryegrass, Italian), 30%. The pest or weed control at 500 g/ha in [1] (preemergence, 0 to 100 scale, 0 = no effect, 100 = complete control, read-out: Plant response rating, Foxtail, Giant) is 100%; in [2] (500 g ai/ha, visual injury, 0 to 100 scale (0 no effect, 100 complete control), approx. 10 d, read-out: Plant response rating, Galium), 50%; in experiment [3] (500 g ai/ha, visual injury, 0 to 100 scale (0 no effect, 100 complete control), approx. 10 d, read-out: Plant response rating, Kochia) it was 70%; in experiment [4] (Postemergence, 500 g ai/ha, 0 to 100 scale where 0 is no effect and 100 is complete control, read-out: Plant response rating, Barnyardgrass), 90%; in experiment [5] (Postemergence, 500 g ai/ha, 0 to 100 scale where 0 is no effect and 100 is complete control, read-out: Plant response rating, Blackgrass) it was 60%; in [7] (500 g ai/ha, visual injury, 0 to 100 scale (0 no effect, 100 complete control), approx. 10 d, read-out: Plant response rating, Foxtail, Giant), 90%. The pest or weed control at 500 g/ha in experiment [8] (500 g ai/ha, visual injury, 0 to 100 scale (0 no effect, 100 complete control), approx. 10 d, read-out: Plant response rating, Pigweed) stood at 50%; in [9] (500 g ai/ha, visual injury, 0 to 100 scale (0 no effect, 100 complete control), approx. 10 d, read-out: Plant response rating, Ragweed), 30%; in [10] (500 g ai/ha, visual injury, 0 to 100 scale (0 no effect, 100 complete control), approx. 10 d, read-out: Plant response rating, Ryegrass, Italian) it was 50%. In experiment [6] (125 g ai/ha, postemergence, visual rating after approx. 10 d, 0 to 100 scale (0 no effect, 100 complete control)), this compound displayed a Corn plant response rating (crop injury, 0 = no effect, 100 = complete kill) at 125 g/ha of 40%. The Corn plant response rating (crop injury, 0 = no effect, 100 = complete kill) at 500 g/ha in [6] (Postemergence, 500 g ai/ha, 0 to 100 scale where 0 is no effect and 100 is complete control) amounted to 80%. Also, in [11] (visual rating after approx. 10 d, 0 to 100 scale (0 no effect, 100 complete control), read-out: Plant response rating, Wheat), the plant injury at 125 g/ha was determined as 60%. The plant injury at 500 g/ha in [11] (500 g ai/ha, visual injury, 0 to 100 scale (0 no effect, 100 complete control), approx. 10 d, read-out: Plant response rating, Wheat) came to 60%. Moreover, the “Plant response rating, Barnyardgrass” value in experiment [12] (setting [16]) amounted to 80. The “Plant response rating, Ducksalad” value in [13] (setting [16]) amounted to 100. The “Plant response rating, Rice” value in experiment [14] (setting [16]) turned out to be 0. In addition, the “Plant response rating, Sedge, Umbrella” value in experiment [15] (setting [16]) was found to be 0.
For the compound `CSc1ccccc1NC(=O)[C@H]1C(=O)N(C)C[C@@H]1c1cccc(COC(F)F)c1` [Compound 876], the pest or weed control at 125 g/ha was found to be 80% in experiment [1] (preemergence, read-out: Foxtail, Giant plant response rating); 0% in experiment [2] (visual injury rating after approximately 10 d, read-out: Galium plant response rating (0 to 100 scale, 0 no effect, 100 complete control)); 50% in experiment [3] (visual injury rating after approximately 10 d, read-out: Kochia plant response rating (0 to 100 scale, 0 no effect, 100 complete control)); 60% in [4] (visual injury rating after approximately 10 d, read-out: Barnyardgrass plant response rating (0 to 100 scale, 0 no effect, 100 complete control)); 0% in [5] (visual injury rating after approximately 10 d, read-out: Blackgrass plant response rating (0 to 100 scale, 0 no effect, 100 complete control)); 40% in experiment [7] (visual injury rating after approximately 10 d, read-out: Foxtail, Giant plant response rating (0 to 100 scale, 0 no effect, 100 complete control)). Besides, the pest or weed control at 125 g/ha in [8] (visual injury rating after approximately 10 d, read-out: Pigweed plant response rating (0 to 100 scale, 0 no effect, 100 complete control)) was found to be 0%; in experiment [9] (visual injury rating after approximately 10 d, read-out: Ragweed plant response rating (0 to 100 scale, 0 no effect, 100 complete control)), 0%; in experiment [10] (visual injury rating after approximately 10 d, read-out: Ryegrass, Italian plant response rating (0 to 100 scale, 0 no effect, 100 complete control)), 0%. The pest or weed control at 500 g/ha in experiment [1] (Preemergence, visual injury vs untreated controls after approximately 10 d, read-out: Foxtail, Giant plant response rating (0 to 100 scale where 0 is no effect and 100 is complete control)) came out at 100%. In addition, the plant injury at 125 g/ha in experiment [6] (125 g ai/ha, postemergence, visual injury rating after approximately 10 d, read-out: Corn plant response rating (0 to 100 scale, 0 no effect, 100 complete control)) is 0%; in experiment [11] (visual injury rating after approximately 10 d, read-out: Wheat plant response rating (0 to 100 scale, 0 no effect, 100 complete control)), 0%. The pest or weed control at 250 g/ha in experiment [12] (Echinochloa crus-galli, scale of 0 to 100 where 0 is no effect and 100 is complete control, read-out: Barnyardgrass plant response rating) was 0%; in experiment [13] (Heteranthera limosa, scale of 0 to 100 where 0 is no effect and 100 is complete control, read-out: Ducksalad plant response rating), 85%; in experiment [14] (Oryza sativa, scale of 0 to 100 where 0 is no effect and 100 is complete control, read-out: Rice plant response rating) it was 0%; in experiment [15] (Cyperus difformis, scale of 0 to 100 where 0 is no effect and 100 is complete control, read-out: Sedge, Umbrella plant response rating), 0%.
